Reference: ChEMBL document CHEMBL1201862, “PubChem BioAssay data set” (2004)
“And” between values parts separate entries of the source, which are not always exact repeats. Equal values may be shown once.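 48-hour exposure; five concentrations; linearly interpolated endpoints. The concentration for 50% growth inhibition is given as GI50.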 The source made the active and inactive calls. No stated cut-off is given here; in the data, active = GI50 up to about 1.1 µM and inactive = higher.

Experiments:
Test in all cases: NCI anticancer screen, dose series, 48 h
SK-MEL-2 = system: SK-MEL-2
CCRF-CEM = system: CCRF-CEM
HOP-92 = system: HOP-92
Malme-3M = system: Malme-3M
IGROV-1 = system: IGROV-1
HOP-62 = system: HOP-62
SF-268 = system: SF-268
HCT-116 = system: HCT-116
SF-295 = system: SF-295
SW-620 = system: SW-620
NCI-H522 = system: NCI-H522
M14 = system: M14
NCI-H226 = system: NCI-H226
SK-OV-3 = system: SK-OV-3
PC-3 = system: PC-3
UACC-62 = system: UACC-62
HT-29 = system: HT-29
786-0 = system: 786-0
OVCAR-8 = system: OVCAR-8
RPMI-8226 = system: RPMI-8226

Measured: GI50

COC1OC(C(=O)CP(=O)(OC)OC)C(OCc2ccccc2)C(OCc2ccccc2)C1OCc1ccccc1 (configuration not stated)
inactive: SK-MEL-2 16.5 µM and 17.1 µM | CCRF-CEM 33.1 µM and 25.1 µM | HOP-92 17.9 µM and 19.1 µM | Malme-3M 17.9 µM and 19.2 µM | IGROV-1 18.3 µM and 18.9 µM | HOP-62 17.2 µM and 18 µM | SF-268 16.9 µM and 17.7 µM | HCT-116 16.6 µM and 15.5 µM | SF-295 16.5 µM and 14.5 µM | SW-620 20.7 µM and 34.3 µM | NCI-H522 14.5 µM and 16 µM | M14 15.3 µM and 16.6 µM | NCI-H226 19.2 µM and 18.8 µM | SK-OV-3 18.1 µM and 17.9 µM | PC-3 15.4 µM and 14.2 µM | UACC-62 13.7 µM and 14.8 µM | HT-29 17.2 µM and 16 µM | 786-0 17.6 µM and 17.3 µM | OVCAR-8 19.8 µM and 17.9 µM

COC(=O)[C@]1(C)CC[C@]2(C)CC[C@]3(C)C4[C@H]5Oc6c(cc7c(c6C)CCC6[C@@]7(C)CC[C@@]7(C)C8[C@](C)(CCC[C@@]8(C)C(=O)OC)CC[C@]67C)O[C@H]5c5c(cc6c(c5C)O[C@@]5(C)C7=CC=C8[C@@](C)(CC[C@@]9(C)[C@@H]%10C[C@](C)(C(=O)OC)CC[C@]%10(C)CC[C@]89C)C7=CC(=O)[C@@]5(O)O6)[C@]4(C)CC[C@@]3(C)C2C1 (some centres not stated)
inactive: SK-MEL-2 3.01 µM | CCRF-CEM 1.19 µM | HOP-92 1.92 µM | Malme-3M 4.86 µM | IGROV-1 2.62 µM | HOP-62 8.51 µM | SF-268 4.5 µM | HCT-116 2.34 µM | SF-295 > 12.5 µM | SW-620 2.53 µM | NCI-H522 2.49 µM | M14 4.01 µM | NCI-H226 > 12.5 µM | SK-OV-3 > 12.5 µM | PC-3 4.15 µM | UACC-62 2.32 µM | HT-29 3.66 µM | 786-0 1.86 µM | OVCAR-8 2.63 µM

COC(=O)c1cc(NC(=O)Cc2c[nH]c3ccccc23)cn1C
inactive: SK-MEL-2 81.7 µM | CCRF-CEM 45.3 µM | RPMI-8226 21.3 µM | Malme-3M 57.7 µM | IGROV-1 22.5 µM | HOP-62 88.1 µM | SF-268 88.5 µM | HCT-116 71.4 µM | SF-295 > 100 µM | SW-620 > 100 µM | NCI-H522 36.1 µM | M14 > 100 µM | NCI-H226 21.7 µM | SK-OV-3 > 100 µM | PC-3 44.6 µM | UACC-62 8.69 µM | HT-29 65.9 µM | 786-0 > 100 µM | OVCAR-8 66.5 µM

N=C/N=C/C(=S)O[C@@H]1C(=O)N2CCC[C@@]23CCCC[C@@H]13
inactive: SK-MEL-2 > 12.5 µM | CCRF-CEM > 12.5 µM | RPMI-8226 > 12.5 µM | Malme-3M > 12.5 µM | IGROV-1 > 12.5 µM | HOP-62 > 12.5 µM | SF-268 > 12.5 µM | HCT-116 > 12.5 µM | SF-295 > 12.5 µM | NCI-H522 > 12.5 µM | M14 > 12.5 µM | NCI-H226 > 12.5 µM | SK-OV-3 > 12.5 µM | PC-3 > 12.5 µM | UACC-62 > 12.5 µM | HT-29 > 12.5 µM | 786-0 > 12.5 µM | OVCAR-8 > 12.5 µM

CC1C2(C)OC(=N)C(C#N)(C(c3ccco3)O2)C1(C#N)C#N (configuration not stated)
inactive: SK-MEL-2 29.4 µM | CCRF-CEM 23.6 µM | HOP-92 22.3 µM | Malme-3M 31.2 µM | IGROV-1 58.9 µM | SF-268 29 µM | HCT-116 26.7 µM | SF-295 > 100 µM | SW-620 16.4 µM | M14 19.1 µM | NCI-H226 > 100 µM | SK-OV-3 > 100 µM | PC-3 36.6 µM | UACC-62 17.7 µM | HT-29 32.8 µM | 786-0 20.8 µM | OVCAR-8 39.9 µM

NS(=O)(=O)c1ccc2c(c1)OCCOCCOCCOCCO2
inactive: CCRF-CEM > 100 µM | RPMI-8226 > 100 µM | Malme-3M > 100 µM | IGROV-1 > 100 µM | HOP-62 > 100 µM | SF-268 > 100 µM | HCT-116 > 100 µM | SF-295 > 100 µM | SW-620 > 100 µM | NCI-H522 > 100 µM | M14 > 100 µM | NCI-H226 > 100 µM | SK-OV-3 > 100 µM | PC-3 > 100 µM | UACC-62 > 100 µM | HT-29 > 100 µM | 786-0 > 100 µM | OVCAR-8 > 100 µM

Cc1cc2c(cc1Cl)SC(N/N=C(\N)c1ccc(Cl)cc1)=NS2(=O)=O
inactive: CCRF-CEM 43.3 µM | HOP-92 10.4 µM | Malme-3M 38.1 µM | IGROV-1 31 µM | HOP-62 > 100 µM | SF-268 45.6 µM | HCT-116 46.2 µM | SF-295 71.3 µM | SW-620 25.8 µM | NCI-H522 30.6 µM | M14 81.5 µM | NCI-H226 > 100 µM | SK-OV-3 > 100 µM | PC-3 41 µM | UACC-62 59.7 µM | HT-29 52.8 µM | 786-0 90.8 µM | OVCAR-8 45.4 µM

NC1=NN(c2ccccc2)C(=O)C1/C(=N\NC(=O)c1cc2ccccc2cc1O)C(=O)Nc1nc([N+](=O)[O-])cs1 (configuration not stated)
inactive: SK-MEL-2 > 49.8 µM | CCRF-CEM 17.3 µM | HOP-92 13.7 µM | RPMI-8226 9.59 µM | Malme-3M > 65 µM | IGROV-1 19.1 µM | HOP-62 54 µM | SF-268 16.7 µM | HCT-116 32.1 µM | SF-295 28.9 µM | SW-620 27.9 µM | NCI-H522 19.1 µM | M14 35.7 µM | NCI-H226 49.1 µM | SK-OV-3 55.7 µM | UACC-62 19.6 µM | HT-29 32.7 µM | 786-0 31.5 µM | OVCAR-8 19.5 µM

C[C@@H](c1ccccc1)N1CN(C(=O)OCc2ccccc2)C(CO)C1=O (some centres not stated)
inactive: SK-MEL-2 > 100 µM | CCRF-CEM 67 µM | RPMI-8226 93.1 µM | Malme-3M > 100 µM | IGROV-1 > 100 µM | HOP-62 > 100 µM | SF-268 > 100 µM | HCT-116 > 100 µM | SF-295 > 100 µM | SW-620 > 100 µM | NCI-H522 > 100 µM | M14 > 100 µM | NCI-H226 > 100 µM | SK-OV-3 > 100 µM | PC-3 > 100 µM | UACC-62 > 100 µM | HT-29 70.3 µM | 786-0 > 100 µM | OVCAR-8 > 100 µM

C[n+]1c(-c2ccc(/C=N/NC(=O)C(=O)N/N=C/c3ccc(-c4cn5ccsc5[n+]4C)cc3)cc2)cn2ccsc21
inactive: CCRF-CEM > 100 µM | RPMI-8226 82.6 µM | IGROV-1 > 100 µM | HOP-62 > 100 µM | SF-268 > 100 µM | HCT-116 92.5 µM | SF-295 53.5 µM | SW-620 > 100 µM | NCI-H522 > 100 µM | M14 > 100 µM | SK-OV-3 > 100 µM | PC-3 > 100 µM | HT-29 > 100 µM | 786-0 > 100 µM | OVCAR-8 > 100 µM

O=C(CC1(O)C(=O)Nc2ccc(Br)cc21)c1ccc(Cl)cc1 (configuration not stated)
inactive: SK-MEL-2 > 100 µM | CCRF-CEM 38.9 µM | HOP-92 35.2 µM | RPMI-8226 42.3 µM | Malme-3M > 100 µM | IGROV-1 > 100 µM | HOP-62 68.9 µM | SF-268 > 100 µM | HCT-116 44.4 µM | SF-295 > 100 µM | SW-620 43.2 µM | NCI-H522 > 100 µM | M14 83.2 µM | NCI-H226 > 100 µM | SK-OV-3 > 100 µM | UACC-62 36.2 µM | HT-29 42 µM | 786-0 75.7 µM | OVCAR-8 52 µM

CC1=CC(=O)N(n2c(-c3ccccc3)n[nH]c2=O)C1=O
inactive: SK-MEL-2 > 100 µM | CCRF-CEM 43.9 µM | RPMI-8226 > 100 µM | Malme-3M > 100 µM | IGROV-1 > 100 µM | HOP-62 > 100 µM | SF-268 > 100 µM | HCT-116 > 100 µM | SF-295 > 100 µM | SW-620 > 100 µM | NCI-H522 > 100 µM | M14 > 100 µM | NCI-H226 > 100 µM | SK-OV-3 > 100 µM | PC-3 > 100 µM | UACC-62 > 100 µM | HT-29 > 100 µM | 786-0 > 100 µM | OVCAR-8 > 100 µM

CC(=O)OC1CC2C(C)(C)C(=O)C=C[C@]2(C)C2CCC3(C)C(c4ccoc4)[C@@H](O)[C@H]4O[C@]43[C@]12C (some centres not stated)
inactive: SK-MEL-2 18.9 µM | CCRF-CEM 21.6 µM | HOP-92 20.3 µM | RPMI-8226 18.4 µM | Malme-3M 24.2 µM | IGROV-1 24 µM | HOP-62 22.7 µM | SF-268 24.5 µM | HCT-116 24.9 µM | SF-295 23.3 µM | SW-620 18.9 µM | NCI-H522 14.6 µM | M14 19.9 µM | NCI-H226 18.4 µM | SK-OV-3 20.7 µM | UACC-62 16.2 µM | HT-29 21.7 µM | 786-0 17.5 µM | OVCAR-8 18.3 µM

N/N=C1\C(=O)N(C2CCCCC2)C(=O)C1C(=O)NC1CCCCC1 (configuration not stated)
inactive: SK-MEL-2 28.9 µM | CCRF-CEM > 100 µM | HOP-92 > 100 µM | RPMI-8226 > 100 µM | Malme-3M > 100 µM | IGROV-1 > 100 µM | HOP-62 > 100 µM | SF-268 > 100 µM | HCT-116 > 100 µM | SF-295 > 100 µM | SW-620 > 100 µM | NCI-H522 > 100 µM | M14 > 100 µM | NCI-H226 > 100 µM | SK-OV-3 47.5 µM | UACC-62 > 100 µM | HT-29 > 100 µM | 786-0 > 100 µM | OVCAR-8 > 100 µM
